Data reported in PMC2856764 (Human immunology, 2010).
Ends that are not written are not given here.

Experiments:
Assay in all cases: biochemical
Format in all cases: binding
HLA-A*3301 = HLA-A*3301 (Homo sapiens, UniProt P04439, A270S/D185E/E176V/E277Q/E87N/F33T/G231S/H175R/I121M/I218V/I322F/K168Q/K210R/L300P/L318F/M331R/P217A/Q86R/Q94H/R138Q/T323A/T345S/T97I/V358M/Y195H)
HLA-A*0301 = HLA-A*0301 (Homo sapiens, UniProt P04439)
HLA-A*6801 = HLA-A*6801 (Homo sapiens, UniProt P04439, A269V/D185E/E176V/E277Q/E87N/F33Y/G231S/I121M/I166T/I218V/L180W/L300P/L318F/N151K/P208A/P217A/Q86R/R169H/T345S)
HLA-A*1101 = HLA-A*1101 (Homo sapiens, UniProt P04439, A114D/D185E/E176A/F33Y/L180Q/S129P/T187R)
HLA-A*3101 = HLA-A*3101 (Homo sapiens, UniProt P04439, A270S/D185E/E176V/E277Q/F33T/G231S/G80R/H175R/I121M/I218V/I322F/K168Q/L300P/L318F/M331R/P217A/Q94H/R138Q/T323A/T345S/T97I/V358M)
HLA-A*2601 = HLA-A*2601 (Homo sapiens, UniProt P04439, A114D/A173T/A270S/D101N/D185E/E277Q/E87N/F33Y/G231S/I121R/I218V/K168Q/L180W/L300P/L318F/P208A/P217A/Q86R/Q94H/R138Q/S129P/T187R/T323A/T345S/V100A/V358M)
HLA-A*3002 = HLA-A*3002 (Homo sapiens, UniProt P04439, D101N/D140H/D185E/E176R/F33S/G80R/H175R/K168Q/Q94H/R138E/R41S/V100E)
HLA-A*0101 = HLA-A*0101 (Homo sapiens, UniProt P04439, A114D/A174V/A182V/D101N/D185E/E176A/E190D/L180R/Q94H/R68K/S129P/T187R/V100A/V91M/W191G)
HLA-A*2902 = HLA-A*2902 (Homo sapiens, UniProt P04439, A270S/D101N/D185E/E176V/E277Q/E87Q/F33T/G231S/H175R/I121M/I218V/I322F/K168Q/L300P/L318F/M331R/P208A/P217A/Q86L/T323A/T345S/V100A/V358M)
HLA-A*0206 = HLA-A*0206 (Homo sapiens, UniProt P04439, D140Y/D185E/D98H/E176V/E277Q/F33Y/G131W/G231S/I119V/I121R/I166T/I218V/L300P/L318F/N151K/N90K/P208A/P217A/Q86G/Q94H/R138H/R169H/T345S)
HLA-A*0203 = HLA-A*0203 (Homo sapiens, UniProt P04439, A173T/D140Y/D185E/D98H/E277Q/G131W/G231S/I119V/I121R/I166T/I218V/L180W/L300P/L318F/N151K/N90K/P208A/P217A/Q86G/Q94H/R138H/R169H/T345S)
HLA-A*0201 = HLA-A*0201 (Homo sapiens, UniProt P04439, D140Y/D185E/D98H/E176V/E277Q/G131W/G231S/I119V/I121R/I166T/I218V/L300P/L318F/N151K/N90K/P208A/P217A/Q86G/Q94H/R138H/R169H/T345S)
HLA-A*0202 = HLA-A*0202 (Homo sapiens, UniProt P04439, D140Y/D185E/D98H/E176V/E277Q/G131W/G231S/I119L/I121R/I166T/I218V/L180W/L300P/L318F/N151K/N90K/P208A/P217A/Q67R/Q86G/Q94H/R138H/R169H/T345S)
HLA-A*6802 = HLA-A*6802 (Homo sapiens, UniProt P04439, A269V/D140Y/D185E/E176V/E277Q/E87N/F33Y/G231S/I121R/I166T/I218V/L180W/L300P/L318F/N151K/P208A/P217A/Q86R/R138H/R169H/S129P/T345S/V36M)
HLA-B*4501 = HLA-B*4501 (Homo sapiens, UniProt P01889, A329T/A65T/A93T/A95T/C349S/D138N/D201E/D98Y/E176V/E187L/E204Q/E69K/H137Y/K202T/L119W/N87E/Q56L/Q94N/R155S/R180D/S121R/S35A/S48T/V127L/V306I/V36M/W191S/Y140L/Y33H/Y91S)
HLA-B*4402 = HLA-B*4402 (Homo sapiens, UniProt P01889, A223V/A65T/A93T/A95T/D201E/D98Y/E176V/E187L/E204Q/E69K/G107R/H137Y/K202T/L105A/L119I/N104T/N87E/Q56L/Q94N/R106L/R155S/R180D/S101N/S121R/S35A/S48T/T118I/V36M/W191S/Y140D/Y91S)
HLA-B*4403 = HLA-B*4403 (Homo sapiens, UniProt P01889, A223V/A65T/A93T/A95T/D201E/D98Y/E176V/E187L/E204Q/E69K/G107R/H137Y/K202T/L105A/L119I/N104T/N87E/Q56L/Q94N/R106L/R155S/R180L/S101N/S121R/S35A/S48T/T118I/V36M/W191S/Y140D/Y91S)
HLA-B*4001 = HLA-B*4001 (Homo sapiens, UniProt P01889, A65T/A93T/A95T/D138N/D98Y/E176V/E69K/N87E/Q56L/Q94N/R180L/S121R/S35A/S48T/T167S/V36M/W171L/Y33H/Y91S)
HLA-B*1801 = HLA-B*1801 (Homo sapiens, UniProt P01889, A329T/A93T/A95T/C349S/D201E/D54G/D98Y/E176V/E187T/E204Q/E69T/K202T/Q94N/R155S/R180L/S121R/V306I/Y140S/Y195H/Y33H/Y91S)
HLA-B*4002 = HLA-B*4002 (Homo sapiens, UniProt P01889, A65T/A93T/A95T/D138N/D201E/D98Y/E176V/E204Q/E69K/K202T/N87E/Q56L/Q94N/R180L/S48T/Y33H/Y91S)

KLVGINMSKK [PB1.471] was tested, and the IC50 (HLA-A*3301) was > 10000 nM, the IC50 (HLA-A*0301) was 14 nM and the IC50 (HLA-A*6801) was 1610 nM. The IC50 (HLA-A*1101) was 315 nM and the IC50 (HLA-A*3101) was 518 nM.
Work on LVSDGGPNLY [PB1.590] yielded an IC50 (HLA-A*2601) of 156 nM, an IC50 (HLA-A*3002) of 57 nM and an IC50 (HLA-A*0101) of 399 nM. For the same sequence, the IC50 (HLA-A*2902) was 479 nM.
NMLSTVLGV [PB1.413] gave an IC50 (HLA-A*0206) of 3 nM, an IC50 (HLA-A*0203) of 11 nM and an IC50 (HLA-A*0201) of 4 nM. For the same sequence, the IC50 (HLA-A*0202) was 5 nM and the IC50 (HLA-A*6802) was 1060 nM.
QEIRTFSFQL [NS2.184] was tested, and the IC50 (HLA-B*4501) was 380 nM, the IC50 (HLA-B*4402) was 102 nM and the IC50 (HLA-B*4403) was 431 nM. The IC50 (HLA-B*4001) was 135 nM, the IC50 (HLA-B*1801) was 515 nM and the IC50 (HLA-B*4002) was 68 nM.
RLFFKCIYRR [M2.45] was tested, and the IC50 (HLA-A*3301) was 238 nM, the IC50 (HLA-A*0301) was 135 nM and the IC50 (HLA-A*6801) was 88 nM. For the same sequence, the IC50 (HLA-A*1101) was 294 nM and the IC50 (HLA-A*3101) was 5 nM.
SEQAAEAMEV [M1.196] gave an IC50 (HLA-B*4501) of 35 nM, an IC50 (HLA-B*4402) of 2640 nM and an IC50 (HLA-B*4403) of 7670 nM. For the same sequence, the IC50 (HLA-B*4001) was 2670 nM, the IC50 (HLA-B*1801) was 1900 nM and the IC50 (HLA-B*4002) was 85 nM.
Work on SFSFGGFTFK [PB2.322] yielded an IC50 (HLA-A*3301) of 85 nM, an IC50 (HLA-A*0301) of 74 nM and an IC50 (HLA-A*6801) of 60 nM. It also gave an IC50 (HLA-A*1101) of 7 nM and an IC50 (HLA-A*3101) of 19 nM.
With SVQPTFSVQR [NP.407] the IC50 (HLA-A*3301) was 181 nM, the IC50 (HLA-A*0301) was > 10000 nM and the IC50 (HLA-A*6801) was 84 nM. For the same sequence, the IC50 (HLA-A*1101) was 37 nM and the IC50 (HLA-A*3101) was 21 nM.
In the case of SVQRNLPFER [NP.413], the IC50 (HLA-A*3301) is reported as 321 nM, the IC50 (HLA-A*0301) is reported as > 10000 nM and the IC50 (HLA-A*6801) is reported as 19 nM. The IC50 (HLA-A*1101) was 411 nM and the IC50 (HLA-A*3101) was 104 nM.
With TEVETYVLSI [M1.5] the IC50 (HLA-B*4501) was 504 nM, the IC50 (HLA-B*4402) was 6880 nM and the IC50 (HLA-B*4403) was 247 nM. The IC50 (HLA-B*4001) was 133 nM, the IC50 (HLA-B*1801) was 136 nM and the IC50 (HLA-B*4002) was 195 nM.
With VLRGFLILGK [PB2.690] the IC50 (HLA-A*3301) was > 10000 nM, the IC50 (HLA-A*0301) was 10 nM and the IC50 (HLA-A*6801) was 1160 nM. It also gave an IC50 (HLA-A*1101) of 460 nM and an IC50 (HLA-A*3101) of 85 nM.
For YSHGTGTGY [PB1.30], the IC50 (HLA-A*2601) was 5 nM, the IC50 (HLA-A*3002) was 131 nM and the IC50 (HLA-A*0101) was 199 nM. The IC50 (HLA-A*2902) was 486 nM.
